According to US4374248A, “3,4-Disubstituted-1,2,5-thiadiazole-1-oxide compounds” (Bristol-Myers Company, priority 1981, dated 1983):
Where two headings read alike, the source gives them in different places.

Key:
Gastric Acid Output = test: Gastric Antisecretory Activity in the Two Hour Pylorus Ligated (Shay) Rat; format: in vivo, rat (Male Long Evans); conditions: 2 h
From the text: Med. Res., 3, 86 (1975). […] One of the standard animal models for determining gastric antisecretory activity of histamine H2 -antagonists is the pylorus ligated rat.
Determination of Gastric Antisecretory Activity in the Two Hour Pylorus Ligated (Shay) Rat
The pyloric ligation procedure in the rat was designed by Shay et al., Gastroenterology, 5, 53 (1945) for the study of perforating gastric ulcers; however, as the method became known, it was also employed as a means of studying rat gastric secretion, Shay et al., Gastroenterology, 26, 906 (1954), Brodie, D, A. Am. J. Dig. Dis., 11, 231 (1966). A modification of this procedure is presently used to evaluate compounds for gastric antisecretory activity.
Male Long Evans rats, 280-300 gm., are used. The animals are placed in individual cages and fasted for 24 hours with free access to water. Under ether anesthesia, the stomach is reached through a midline incision, and a cotton-thread ligature is placed around the pylorus. After wound closure, ether administration is stopped and the test compound or control vehicle is administered either intraperitoneally or subcutaneously in a volume of 1 ml./kg. All compounds are solubilized with one equivalent of HCl and brought to the proper volume with water. The animals are returned to their cages from which the water bottles have been removed and two hours later are sacrificed with ether. The stomach is removed and the two hour gastric collection is drained into a graduated test tube for volume determination. Titratable acidity is measured by titrating a one ml. sample to pH 7.0 with 0.02 NaOH, using an Autoburet and electrometric pH meter (Radiometer). Titratable acid output is calculated in microequivalents by multiplying the volume in milliliters by the acid concentration in milliequivalents per liter. The percent inhibition of acid output is calculated as follows [formula] At least five rats are used at each dosage level, and a minimum of three dosage levels are utilized for determination of a dose response curve. Initially this test was conducted utilizing intraperitoneal injection of the test compound or control vehicle. […] The route of administration of each compound is noted in Table 1.

H2 -receptor = conditions: cited from earlier work
peptic ulcer disease = conditions: Gray et al., Lancet, 1, 8001 (1977); cited from earlier work
[1] = clinical; cited from earlier work
[2] = in vivo; cited from earlier work
gastric secretion = conditions: cited from earlier work
[3] = sc, s.c. administration, two hour gastric acid output, 95% confidence limits in parenthesis, read-out: ED50

**Q.** For `CN(C)Cc1ccc(CSCCNC2=NS(=O)(=O)N=C2N2CCCCC2)o1` [Example 102, 3-{2-[(5-Dimethylaminomethyl-2-furyl)methylthio]ethylamino}-4-piperidino-1,2,5-thiadiazole 1,1-dioxide], which ED50 (Gastric Acid Output; [3]) is on record?
**A.** ~15 µmol/kg

**Q.** With `CNC1=NS(=O)(=O)N=C1NCCCOc1cccc(CN2CCOCC2)c1` [144 d] as the compound, how does the ED50 (Gastric Acid Output; [3]) read?
**A.** 0.91 µmol/kg

**Q.** Which ED50 (Gastric Acid Output; [3]) does the source give for `CNC1=NS(=O)(=O)N=C1NCCCOc1cccc(CN2CCCCCC2)c1` [144 c] here?
**A.** 0.14 µmol/kg

**Q.** With `CN(C)Cc1ccc(CSCCNC2=NS(=O)(=O)N=C2N(C)C)o1` [Example 28, 3-{2-[(5-Dimethylaminomethyl-2-furyl)methylthio]ethylamino}-4-dimethylamino-1,2,5-thiadiazole 1,1-dioxide] as the compound, how does the ED50 (Gastric Acid Output; [3]) read?
**A.** 1.39 µmol/kg

**Q.** With `Nc1n[s+]([O-])nc1NCCCOc1cccc(CN2CCCCCC2)c1` (stereo not shown) [145 c] as the compound, how does the ED50 (Gastric Acid Output; [3]) read?
**A.** 0.025 µmol/kg

**Q.** For `Nc1n[s+]([O-])nc1NCCCOc1cccc(CN2CCCCCCC2)c1` (stereo not shown) [145 d], which ED50 (Gastric Acid Output; [3]) is on record?
**A.** 0.05 µmol/kg

**Q.** With `CN(C)Cc1ccc(CSCCNC2=NS(=O)(=O)N=C2NCCSCc2ccc(CN(C)C)o2)o1` [11 C] as the compound, how does the ED50 (Gastric Acid Output; [3]) read?
**A.** 0.2 µmol/kg

**Q.** Which results are given for `CNC(=NC#N)NCCSCc1nc[nH]c1C` [Cimetidine]?
**A.** H2 -antagonist potency/effectiveness relative to another antagonist (H2 -receptor): as effective an H2 -antagonist as metiamide; ED50 (Gastric Acid Output): ~9 µmol/kg; therapeutic effect in peptic ulcer disease (peptic ulcer disease): effective therapeutic agent in the treatment of peptic ulcer disease; toxicity (agranulocytosis) [1]: without producing agranulocytosis

**Q.** With `CNC(=S)NCCCCc1cnc[nH]1` [Burimamide] as the compound, how does the oral absorption [2] read?
**A.** poor

**Q.** And the “inhibition of gastric secretion” value (gastric secretion; animals and man)?
**A.** inhibits gastric secretion in animals and man

**Q.** With `CNC1=NS(=O)(=O)N=C1NCCCOc1cccc(CN2CCCC2)c1` [144 a] as the compound, how does the ED50 (Gastric Acid Output; [3]) read?
**A.** 0.095 µmol/kg

**Q.** Which ED50 (Gastric Acid Output; [3]) does the source give for `CNCc1ccc(CSCCNC2=NS(=O)(=O)N=C2NC)o1` [20 A] here?
**A.** 1.15 µmol/kg

**Q.** With `CCCCCCCCCCCCNC1=NS(=O)(=O)N=C1NCCSCc1ccc(CN(C)C)o1` [Example 106, 3-{2-[(5-Dimethylaminomethyl-2-furyl)methylthio]ethylamino}-4-dodecylamino-1,2,5-thiadiazole 1,1-dioxide] as the compound, how does the ED50 (Gastric Acid Output; [3]) read?
**A.** ~80 µmol/kg

**Q.** Which ED50 (Gastric Acid Output; [3]) does the source give for `NC1=NS(=O)(=O)N=C1NCCCOc1cccc(CN2CCCC2)c1` [146 a] here?
**A.** 0.023 µmol/kg

**Q.** Which ED50 (Gastric Acid Output; [3]) does the source give for `NC1=NS(=O)(=O)N=C1NCCCOc1cccc(CN2CCOCC2)c1` [146 d] here?
**A.** 0.28 µmol/kg

**Q.** With `CC1CCN(Cc2cccc(OCCCNc3n[s+]([O-])nc3N)c2)CC1` (stereo not shown) [145 b] as the compound, how does the ED50 (Gastric Acid Output; [3]) read?
**A.** ~0.06 µmol/kg

**Q.** Which results are given for `CNC(=S)NCCSCc1nc[nH]c1C` [Metiamide]?
**A.** H2 -antagonist potency/effectiveness relative to another antagonist (H2 -receptor): more potent than burimamide; oral activity (gastric secretion; in man, oral): orally active in man; toxicity (agranulocytosis) [1]: toxicity (agranulocytosis)

**Q.** Which ED50 (Gastric Acid Output; [3]) does the source give for `CNC1=NS(=O)(=O)N=C1NCCCOc1cccc(CN2CCC(C)CC2)c1` [144 b] here?
**A.** 0.025 µmol/kg

**Q.** With `CNC1=NS(=O)(=O)N=C1NCCSCc1ccc(CN(C)C)o1` [11 B] as the compound, how does the ED50 (Gastric Acid Output; ip, i.p. administration, two hour gastric acid output, 95% confidence limits in parenthesis, read-out: ED50) read?
**A.** 0.69 µmol/kg

**Q.** Which ED50 (Gastric Acid Output; [3]) does the source give for `Nc1n[s+]([O-])nc1NCCCOc1cccc(CN2CCCC2)c1` (stereo not shown) [145 a] here?
**A.** 0.056 µmol/kg
